Measured values reported in US10117909B2, “Combination of an insulin and a GLP-1 agonist” (Sanofi-Aventis Deutschland GmbH, priority 2008, dated 2018).
Entries after “also recorded” stand apart in the source; their conditions may differ.

Assay: Oral glucose tolerance test (OGTT) in healthy dogs
Type: in vivo, dog
Conditions: male beagle, n=6, single s.c. injection at time 0, insulin glargine 0.3 U/kg, AVE0010 10 μg/kg, relative to Lantus placebo; for OGTT-induced postprandial increase in blood glucose: repeated OGTT 2 g/kg p.o. at 30 min and 5 h; for blood glucose concentration in the postabsorptive phase: repeated OGTT 2 g/kg p.o.
Procedure: Model: Oral glucose tolerance test (OGTT) in healthy dogs: Comparison of the insulin glargine/AVE0010 combination with the two individual active compounds.
• Male normoglycemic beagles • Bodyweight: ˜15 kg • Number per group: n=6 Study Design (See FIG. 1) • Individual subcutaneous injections of placebo or test formulation at time 0 • 2 oral administrations of glucose, at 2 g of glucose/kg of bodyweight, at times 30 min and 5 h • Blood samples are taken to determine blood glucose, plasma insulin, and c-peptide Group Division (n=6) • Placebo (Lantus placebo formulation without API) • Insulin glargine (0.3 μl/kg s.c., equivalent to 1.8 nmol/kg). Insulin glargine is Gly(A21)-Arg(B31)-Arg(B32) human insulin. • AVE0010 (10 μg/kg s.c. in Lantus placebo formulation, equivalent to 2 nmol/kg).
AVE0010 is des Pro^36exendin-4(1-39)-Lys6-NH2. • AVE0010/insulin glargine combination (10 μg/kg AVE0010/0.3 μl/kg insulin glargine s.c.)

Substance | OGTT-induced postprandial increase in blood glucose | blood glucose concentration in the postabsorptive phase
Gly(A21)-Arg(B31)-Arg(B32) human insulin [insulin glargine] | does not prevent the OGTT-induced increase in blood glucose; also recorded: has no effect on the postprandial glucose level | reinforces the expected delayed lowering of blood glucose concentration in the postabsorptive phase
des Pro^36exendin-4(1-39)-Lys6-NH2 [AVE0010] | prevents the OGTT-induced postprandial increase in blood glucose almost completely | no effect on the glucose concentration in the postabsorptive phase; also recorded: has no effect on the level of glucose, which has fallen again following administration of glucose
